Patent publication US10781224B2, “Bis(oxymethyl)phosphinic acid and biogenic metal salts thereof as regulators of plant growth and development” (priority 2016, dated 2020)

Columns and labels:
[1] = system: corn (Krasnodar 385 MV variety); test: Corn seed treatment with BHMPA salts: germination energy and germination rate; format: in vivo
Summary of the method: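 Corn, winter wheat and rice seeds (50 per dish, on filter paper) were soaked for 1 h in BHMPA or its metal salts at 1·10^−6-1·10^−12%, with water as control. Germination energy was read on day 4 and germination rate on day 8 for wheat and day 7 for rice and corn, following GOST 12038-84, as the mean of four replicates.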

[2] = system: rice (Diamant variety); test: Rice seed treatment with BHMPA salts: germinating power; format: in vivo
Summary of the method: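 Seeds (50 per Petri dish on two layers of filter paper) soaked 1 h in BHMPA or its Ca, Mg, Na, Co, Mn, Cu or Zn salts at 1·10^−6-1·10^−12%, with water controls. Germination energy read on day 4, germination on day 8 (wheat) or day 7 (rice, corn), as % means of four replicates. Germinating power taken as root and sprout length plus wet and dry mass per 100 seedlings.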

[3] = comparative study vs Melaphen, 1·10^−7% solution
[4] = rice seed treatment, comparison with Melaphen (Table XXXIII), solution 1 · 10^−9%
[5] = rice seeds, solution concentration 1 · 10^−6%
[6] = rice seeds, solution concentration 1 · 10^−7%
[7] = rice seeds, solution concentration 1 · 10^−8%
[8] = rice seeds, solution concentration 1 · 10^−9%
[9] = rice seeds, solution concentration 1 · 10^−10%
[10] = rice seeds, solution concentration 1 · 10^−11%
[11] = rice seeds, solution concentration 1 · 10^−12%
[12] = rice, vs control, 1·10^−9% solution

Compound: O.O.O=P([O-])(CO)CO.O=P([O-])(CO)CO.[Co+2] [Co-salt, Cobalt BHMPA Salt]
- Germination energy ([1]; 1·10^−6% solution): 80.0%
- Germination rate ([1]; 1·10^−6% solution): 82.2%
- Germination energy ([1]; 1·10^−7% solution): 84.3%
- Germination rate ([1]; 1·10^−7% solution): 90.0%
- Germination rate ([1]; 1·10^−7% solution, listed as Co): 86.7%
- Germination energy ([1]; 1·10^−8% solution): 82.0%
- Germination rate ([1]; 1·10^−8% solution): 84.7%
- Germination energy ([1]; 1·10^−9% solution): 80.7%
- Germination rate ([1]; 1·10^−9% solution): 83.0%
- Germination energy ([1]; 1·10^−10% solution): 79.2%
- Germination rate ([1]; 1·10^−10% solution): 81.7%
- Germination energy ([1]; 1·10^−11% solution): 78.0%
- Germination rate ([1]; 1·10^−11% solution): 80.8%
- Germination energy ([1]; 1·10^−12% solution): 76.8%
- Germination rate ([1]; 1·10^−12% solution): 79.2%
- Germination energy [1, 3]: 87.0%
- Germination rate [1, 3]: 96.7%
- optimum concentration for treating rice seeds before sowing ([2]; rice): 1·10^−9%
- Length, root [2, 4]: 6.4 cm
- Length, root, + % to control [2, 4]: 33%
- Length, sprout [2, 4]: 3.7 cm
- Length, sprout, + % to control [2, 4]: 42%
- Mass, dry, root [2, 4]: 0.25 g/100 plantlings
- Mass, dry, root, + % to control [2, 4]: 19%
- Mass, dry, sprout [2, 4]: 0.28 g/100 plantlings
- Mass, dry, sprout, + % to control [2, 4]: 12%
- Mass, wet, root [2, 4]: 1.37 g/100 plantlings
- Mass, wet, root, + % to control [2, 4]: 40%
- Mass, wet, sprout [2, 4]: 2.28 g/100 plantlings
- Mass, wet, sprout, + % to control [2, 4]: 51%
- Length, root [2, 5]: 5.1 cm
- Length, root, + % to control [2, 5]: 8.5%
- Length, sprout [2, 5]: 2.6 cm
- Length, sprout, + % to control [2, 5]: 13%
- Mass, dry, root [2, 5]: 0.19 g/100 plantlings
- Mass, dry, root, + % to control [2, 5]: 12%
- Mass, dry, sprout [2, 5]: 0.25 g/100 plantlings
- Mass, dry, sprout, + % to control [2, 5]: 25%
- Mass, wet, root [2, 5]: 0.89 g/100 plantlings
- Mass, wet, root, + % to control [2, 5]: 8.5%
- Mass, wet, sprout [2, 5]: 1.71 g/100 plantlings
- Mass, wet, sprout, + % to control [2, 5]: 15.5%
- Length, root [2, 6]: 5.4 cm
- Length, root, + % to control [2, 6]: 15%
- Length, sprout [2, 6]: 2.9 cm
- Length, sprout, + % to control [2, 6]: 26%
- Mass, dry, root [2, 6]: 0.22 g/100 plantlings
- Mass, dry, root, + % to control [2, 6]: 29%
- Mass, dry, sprout [2, 6]: 0.28 g/100 plantlings
- Mass, dry, sprout, + % to control [2, 6]: 40%
- Mass, wet, root [2, 6]: 0.94 g/100 plantlings
- Mass, wet, root, + % to control [2, 6]: 15%
- Mass, wet, sprout [2, 6]: 1.80 g/100 plantlings
- Mass, wet, sprout, + % to control [2, 6]: 22%
- Length, root [2, 7]: 5.7 cm
- Length, root, + % to control [2, 7]: 21%
- Length, sprout [2, 7]: 3.1 cm
- Length, sprout, + % to control [2, 7]: 35%
- Mass, dry, root [2, 7]: 0.24 g/100 plantlings
- Mass, dry, root, + % to control [2, 7]: 41%
- Mass, dry, sprout [2, 7]: 0.31 g/100 plantlings
- Mass, dry, sprout, + % to control [2, 7]: 55%
- Mass, wet, root [2, 7]: 1.07 g/100 plantlings
- Mass, wet, root, + % to control [2, 7]: 30%
- Mass, wet, sprout [2, 7]: 2.01 g/100 plantlings
- Mass, wet, sprout, + % to control [2, 7]: 36%
- Length, root [2, 8]: 6.2 cm
- Length, root, + % to control [2, 8]: 32%
- Length, sprout [2, 8]: 3.5 cm
- Length, sprout, + % to control [2, 8]: 52%
- Mass, dry, root [2, 8]: 0.26 g/100 plantlings
- Mass, dry, root, + % to control [2, 8]: 53%
- Mass, dry, sprout [2, 8]: 0.35 g/100 plantlings
- Mass, dry, sprout, + % to control [2, 8]: 75%
- Mass, wet, root [2, 8]: 1.15 g/100 plantlings
- Mass, wet, root, + % to control [2, 8]: 40%
- Mass, wet, sprout [2, 8]: 2.09 g/100 plantlings
- Mass, wet, sprout, + % to control [2, 8]: 41%
- Length, root [2, 9]: 5.8 cm
- Length, root, + % to control [2, 9]: 23%
- Length, sprout [2, 9]: 3.2 cm
- Length, sprout, + % to control [2, 9]: 39%
- Mass, dry, root [2, 9]: 0.23 g/100 plantlings
- Mass, dry, root, + % to control [2, 9]: 35%
- Mass, dry, sprout [2, 9]: 0.28 g/100 plantlings
- Mass, dry, sprout, + % to control [2, 9]: 40%
- Mass, wet, root [2, 9]: 1.03 g/100 plantlings
- Mass, wet, root, + % to control [2, 9]: 26%
- Mass, wet, sprout [2, 9]: 1.97 g/100 plantlings
- Mass, wet, sprout, + % to control [2, 9]: 33%
- Length, root [2, 10]: 5.6 cm
- Length, root, + % to control [2, 10]: 19%
- Length, sprout [2, 10]: 2.8 cm
- Length, sprout, + % to control [2, 10]: 22%
- Mass, dry, root [2, 10]: 0.20 g/100 plantlings
- Mass, dry, root, + % to control [2, 10]: 18%
- Mass, dry, sprout [2, 10]: 0.26 g/100 plantlings
- Mass, dry, sprout, + % to control [2, 10]: 30%
- Mass, wet, root [2, 10]: 0.94 g/100 plantlings
- Mass, wet, root, + % to control [2, 10]: 15%
- Mass, wet, sprout [2, 10]: 1.89 g/100 plantlings
- Mass, wet, sprout, + % to control [2, 10]: 28%
- Length, root [2, 11]: 5.2 cm
- Length, root, + % to control [2, 11]: 11%
- Length, sprout [2, 11]: 2.7 cm
- Length, sprout, + % to control [2, 11]: 17%
- Mass, dry, root [2, 11]: 0.19 g/100 plantlings
- Mass, dry, root, + % to control [2, 11]: 12%
- Mass, dry, sprout [2, 11]: 0.24 g/100 plantlings
- Mass, dry, sprout, + % to control [2, 11]: 20%
- Mass, wet, root [2, 11]: 0.88 g/100 plantlings
- Mass, wet, root, + % to control [2, 11]: 7%
- Mass, wet, sprout [2, 11]: 1.82 g/100 plantlings
- Mass, wet, sprout, + % to control [2, 11]: 23%
- dry mass of the roots increased by [2, 12]: 53%
- dry mass of the sprouts increased by [2, 12]: 75%
- length of the root increased by [2, 12]: 32%
- length of the sprout increased by [2, 12]: 52%
- wet mass of the roots increased by [2, 12]: 40%
- wet mass of the sprouts increased by [2, 12]: 41%
